Measured values: patent publication US20150018311A1, “THERAPEUTIC BORON-CONTAINING COMPOUNDS” (priority 2012, published 2015)

Tests used:
Experiment in all cases: Growth in liquid media in presence of test compound
Assay type in all cases: cell-based
[1] = tested on: Mycobacterium tuberculosis (H37Rv)
[2] = tested on: Candida albicans (ATCC 90028)
From the text: (§1) Test organisms used were the bacterial strains Escherichia coli (ATCC 25922), Pseudomonas aeruginosa (ATCC 27853), Staphylococcus aureus (ATCC 25923), Streptococcus pyogenes (ATCC 19615), and Mycobacterium tuberculosis (H37Rv), and the yeast strain Candida albicans (ATCC 90028).
(§2) The liquid media used for growth were Luria-Bertani (Becton Dickinson, Sparks, Md.) and Mueller-Hinton (bio-Merieux, Paris, France) broths, but with Saburo medium for Candida and Middlebrook 7H9 medium (Difco) for mycobacteria.
(§3) The strains were grown at 37° C. and after suitable cell concentrations had been reached, 100 μL of each cell suspension was added to a tube with growth media and test compound. Cultivation of the bacteria was then carried out in the presence of each test compound at 37° C. and the tubes examined for visible growth. The compounds were tested at concentrations of either 500 mg/l, 50 mg/l or 5 mg/l. This assay was repeated twice.
(§4) Some compounds were only tested against some test organisms. It will be appreciated that the charge of these molecules will depend on the environment, some of the Examples are shown with a suitable counter ion, some without.

[3] = tested on: Escherichia coli (ATCC 25922)
From the text: as §1, §2, §3, §4

[4] = tested on: Pseudomonas aeruginosa (ATCC 27853)
From the text: as §1, §2, §3, §4

[5] = tested on: Staphylococcus aureus (ATCC 25923)
From the text: as §1, §2, §3, §4

[6] = tested on: Streptococcus pyogenes (ATCC 19615)
From the text: as §1, §2, §3, §4

| SMILES | Growth in the presence of test compound, M. tuberculosis ([1]; 5 mg/L) | Growth in the presence of test compound, M. tuberculosis ([1]; 50 mg/L) | Growth in the presence of test compound, M. tuberculosis ([1]; 500 mg/L) | Growth in the presence of test compound, C. albicans ([2]; 5 mg/L) | Growth in the presence of test compound, C. albicans ([2]; 50 mg/L) | Growth in the presence of test compound, C. albicans ([2]; 500 mg/L) | Growth in the presence of test compound, E. coli ([3]; 5 mg/L) | Growth in the presence of test compound, E. coli ([3]; 50 mg/L) | Growth in the presence of test compound, E. coli ([3]; 500 mg/L) | Growth in the presence of test compound, P. aeruginosa ([4]; 5 mg/L) | Growth in the presence of test compound, P. aeruginosa ([4]; 50 mg/L) | Growth in the presence of test compound, P. aeruginosa ([4]; 500 mg/L) | Growth in the presence of test compound, S. aureus ([5]; 5 mg/L) | Growth in the presence of test compound, S. aureus ([5]; 50 mg/L) | Growth in the presence of test compound, S. aureus ([5]; 500 mg/L) | Growth in the presence of test compound, S. pyogenes ([6]; 5 mg/L) | Growth in the presence of test compound, S. pyogenes ([6]; 50 mg/L) | Growth in the presence of test compound, S. pyogenes ([6]; 500 mg/L) |
| --- | --- | --- | --- | --- | --- | --- | --- | --- | --- | --- | --- | --- | --- | --- | --- | --- | --- | --- |
| CC1(C)C2CC3OB([C@H](CCc4ccccc4)CNC(=O)[C@H](N)CCCCN)O[C@]3(C)C1C2 (stereo partly drawn) [Compound 20] | + | − | − | + | ± | ± | + | + | + | + | ± | ± | + | − | ± | + | ± | ± |
| CC1(C)C2CC3OB([C@@H](CNC(=O)[C@@H](N)CCCCN)Cc4ccc5ccccc5c4)O[C@]3(C)C1C2 (stereo partly drawn) [Compound 21] | − | − | − | + | + | ± | + | + | + | + | + | ± | + | ± | + | + | + | ± |
| CC(NC(=O)C(N)CCCCN)C(Cc1ccccc1)B1OC2CC3CC(C3(C)C)C2(C)O1 (stereo not drawn) [Compound 26] | − | − | − | + | + | − | + | + | − | + | + | − | + | + | − | + | + | − |
| CC(B1OC2CC3CC(C3(C)C)C2(C)O1)C(Cc1ccccc1)NC(=O)C(N)CCCCN (stereo not drawn) [Compound 30] | + | − | − | + | + | − | + | + | − | + | + | − | + | + | − | + | + | − |
| CC1(C)C2CC3OB(C(Cc4ccccc4)C(Cc4ccccc4)NC(=O)C(N)CCCCN)OC3(C)C1C2 (stereo not drawn) [Compound 31] | + | − | − | + | + | − | + | + | − | + | + | − | + | + | − | + | + | − |
| CC(B1OC2CC3CC(C3(C)C)C2(C)O1)C(Cc1ccccc1)NC(=O)C(Cc1ccccc1)NC(=O)C(N)CCCCN (stereo not drawn) [Compound 36] | + | − | − | + | + | ± | + | + | − | + | + | − | + | + | − | + | + | − |
| NCCCC[C@H](N)C(=O)NC[C@@H](Cc1ccccc1)B(O)O [Compound 38] | − | − | − | + | + | ± | + | + | ± | + | + | + | + | + | ± | + | + | − |
| CC1(C)C2CC3OB([C@@H](CNC(=O)[C@H](N)Cc4ccccc4)Cc4ccccc4)O[C@]3(C)C1C2 (stereo partly drawn) [Compound 41] | + | ± | ± | + | ± | ± | + | + | + | + | + | + | + | + | ± | + | + | ± |
| N[C@@H](Cc1ccccc1)C(=O)NC[C@@H](Cc1ccccc1)[B-](F)(F)F.[K+] [Compound 42] | + | − | − | + | ± | ± | + | + | + | + | + | + | + | + | + | + | + | ± |
